According to patent US20050239751A1, “Heterocyclic anti-viral compounds comprising metabolizable moieties and their uses” (Rigel Pharmaceuticals, Inc., priority 2004, published 2005):
pIC50: −log10 of the molar value. Where two headings read alike, the source gives them in different places.

Tests used:
[1] = tested on: HCV NS5A protein in 9-13 replicon cells; assay: Replicon quantitative Western blot assay (HEPC_REPLICON-ICWESTERN); type: cell-based; conditions: Hepatitis C virus; Table 14; read-out: HEPC_REPLICON-ICWESTERN Result Value
Experimental: Alternatively, the inhibitory activity of the metabolically active agents of the prodrugs can be confirmed using a quantitative Western immunoblot assay utilizing antibodies specific for HCV non-structural proteins, such as NS3, NS4A NS5A and NS5B. In one embodiment of this assay, replicon cells are treated with varying concentrations of test prodrug to determine the concentration of the metabolically active agent of the test prodrug that yields a 50% reduction in the amount of a non-structural protein produced as compared to a control sample (IC50). A single non-structural protein may be quantified or multiple non-structural proteins may be quantified. Antibodies suitable for carrying out such immunoblot assays are available commercially (e.g., from BIODESIGN International, Saco, Me.).
Certain prodrugs of the invention, which may inhibit HCV translation or replication prior to metablism and/or are metabolized into active agents, were also tested for their ability to inhibit HCV replication using a quantitative Western blot analysis with antibodies specific for the HCV NS5A or other non-structural proteins. Actively dividing 9-13 replicon cells were seeded into 6-well plates at a density of 1×10^5 cells/well in a volume of 2 ml/well and incubated at 37° C. and 5% CO2 for 24 hours. Various concentrations of test prodrugs (in a volume of 10 ul) were added to the wells and the cells incubated for another 48 hours. Protein samples were prepared from the cultured cells, resolved on a SDS-PAGE gel and transferred to a nitrocellulose membrane. The membrane was blocked with 5% non-fat milk in PBS for 1 hour at room temperature. Primary antibody (anti NS5A antibody; BIODESIGN International, Saco, Me.) incubation was performed for 1 hour at room temperature, after which the membrane was washed 3 times (for 15 min per time) with PBST (PBS plus 0.1% Tween 20). Horseradish peroxidase conjugated secondary antibody incubation was performed for 1 hour at room temperature and the membrane was washed 3 times (for 15 min per time) with PBST. The membrane was then soaked in substrate solution (Pierce) and exposed to a film or quantified using an imager. In this assay, the amount of test prodrug that is believed to be transformed into an active agent under the given conditions that yielded a 50% reduction in the amount of NS5A protein translated as compared to a control sample (IC50) was determined.

[2] = tested on: HCV replicon in 5-2 Luc replicon-comprising cells; assay: HCV replicon assay (luciferase; HEPC_REPLICON-LUC); type: cell-based, Hepatitis C virus; conditions: Hepatitis C virus
From the text: In one embodiment, the inhibitory activity of the metabolically active agent of the prodrug can be confirmed in a replicon assay that assesses the ability of a test compound to block or inhibit HCV replication in replicon cells. One example of a suitable replicon assay is the liver cell-line Huh 7-based replicon assay described in Lohmann et al., 1999, Science 285:110-113. A specific example of this replicon assay which utilizes luciferase translation is provided in the Examples Section. In one embodiment of this assay, the amount of test prodrug that yields a 50% reduction in translation as compared to a control cell (IC50) may be determined.
The inhibitory activity of certain prodrugs of the invention, which may inhibit HCV translation or replication prior to metablism and/or are metabolized into active agents, was confirmed using an HCV replicon assay. The HCV replicon can include such features as the HCV 5′ untranslated region including the HCV IRES, the HCV 3′ untranslated region, selected HCV genes encoding HCV polypeptides, selectable markers, and a reporter gene such as luciferase, GFP, etc. In the assay, actively dividing 5-2 Luc replicon-comprising cells (obtained from Ralf Bartenschlager; see Lohmann et al., 1999, Science 285:110-113) were seeded at a density of between about 5,000 and 7,500 cells/well onto 96 well plates (about 90 µl of cells per well) and incubated at 37° C. and 5% CO2 for 24 hours. Then, the test prodrug (in a volume of about 10 PI) was added to the wells at various concentrations and the cells were incubated for an additional 24-48 hours before luciferase assay. The media was aspirated from each well and Bright-Glo (Promega, Madison, WI) luciferase assay reagents were added to each well according to the manufacturer's instructions. Briefly, the BrightGlo reagent was diluted 1:1 with PBS and 100 µl of diluted reagent was added to each well. After 5 min of incubation at room temperature, luciferin emission was quantified with a luminometer. In this assay, the amount of test prodrug that yielded a 50% reduction in luciferase emission (IC50) was determined. This IC50 value may represent the antiviral activity of the prodrug itself, the activity of prodrug transformed into its active metabolized form, or a combination of the two.
In TABLES 3 through 12, a value of “+” indicates an IC50 of 10 μM or less in the specified assay; a value of “−” indicates an IC50 of greater than 10 μM in the specified assay.

[3] = Biliary excretion in rats after oral administration; type: in vivo; conditions: rat, four hours after oral administration
Experimental: Evidence for the conversion of prodrug 1107 to its active metabolite in rat liver was obtained by measuring prodrug and active compound concentrations in bile fluid.
(§1) Compounds were dissolved in a mixture of TPGS:PEG:PG (35%:60%:5%) and diluted with saline for oral administration. Typically, 6.5mg of compound was dissolved in 1 ml of the organic mixture and added to 5.5 ml of saline. Animals were dosed with 5 ml/kg of this mixture to give a typical dose of 5 mg/kg. All animal studies were conducted in male SpraqueDawley rats and the animals were fasted overnight prior to dose administration. Surgeries (to implant blood sampling cannula) were conducted at least two days prior to the study. Blood samples (100 μl) were collected using sodium heparin as anticoagulant and added to 300 μl of a mixture of acetate buffer (100 mM, pH=6.5):acetonitrile:ethanol:DMSO (2:1:1:2 v/v). Samples were centrifuged and the supernatant was analyzed by LC/MS/MS using the procedures outlined above. Standard were prepared similarly using fresh rat blood from naive animals.
Esterases are present in various tissues in the liver and may further degrade the active parent compound prior to reaching the HepC virus that is localized within hepatocyte cells. Experiments with radio-labeled the active parent compound indicate that the active parent compound is excreted from the body through bile (data not shown). […]

[4] = Rat pharmacokinetic study, portal and jugular vein cannula, oral administration; type: in vivo
Experimental: Pharamcokinetic studies were conducted in rats containing surgically implanted cannula in the portal and jugular veins. Blood samples were taken simultaneously from both cannula at various times after oral administration of the compounds. In the portal vein, the prodrugs are detected and, in some cases, the active compound, A-B-C-NHCOCHX2, has also been detected. The presence of active compound in the portal vein samples has been attributed to metabolism of the prodrug in transit through the gut wall. […] In the jugular samples, many, but not all, of the prodrugs have been detected in systemic circulation, depending on the hepatic extraction ratio of the prodrug.
as §1, with “Blood samples (100 μl) were collected using sodium heparin as anticoagulant and added to 300 μl of a mixture of acetate buffer (100 mM, pH=6.5):acetonitrile:ethanol:DMSO (2:1:1:2 v/v).” left out, “Standard were prepared similarly using fresh rat blood from naive animals.” left out

[5] = Table 14, read-out: HEPC_REPLICON-LUC Result Value

SMILES | pIC50 [1] | pIC50 [2, 5] | also measured
CC(C)(C)OC(=O)N1CCN(c2ccc(CCCN(C(=O)C(Cl)Cl)c3ccnc(-c4cc(-c5c(Cl)cccc5Cl)no4)c3)cc2)CC1 [Cpd. 1039, tert-Butyl 4-(4-(3-(2,2-Dichloro-N-(2-(3-(2,6-dichlorophenyl)isoxazol-5-yl)pyridin-4yl)acetamido)propyl)phenyl)piperazine-1-carboxylate] | < 4.70 | – | –
CC(C)(C)OC(=O)c1ccc(CCCN(C(=O)C(Cl)Cl)c2ccnc(-c3cc(-c4c(Cl)cccc4Cl)no3)c2)cc1 [Cpd. 1040, tert-Butyl 4-(3-(2,2-Dichloro-N-(2-(3-(2,6-dichlorophenyl)isoxazol-5-yl)pyridin-4-yl)acetamido)propyl)benzoate] | 4.70 to 6.00 | – | –
CC(C)(C)OP(=O)(Cc1ccc(CCCN(C(=O)C(Cl)Cl)c2ccnc(-c3cc(-c4c(Cl)cccc4Cl)no3)c2)cc1)OC(C)(C)C [Cpd. 1041, Di-tert-Butyl 4-(3-(2,2-Dichloro-N-(2-(3-(2,6-dichlorophenyl)isoxazol-5-yl)pyridin-4-yl)acetamido)propyl)benzylphosphonate] | 4.70 to 6.00 | 4.70 to 6.00 | –
O=C(C(Cl)Cl)N(CCCc1ccc(CP(=O)(O)O)cc1)c1ccnc(-c2cc(-c3c(Cl)cccc3Cl)no2)c1 [Cpd. 1042, 4-(3-(2,2-Dichloro-N-(2-(3-(2,6-dichlorophenyl)isoxazol-5-yl)pyridin-4-yl)acetamido)propyl)benzylphosphonic Acid] | < 4.70 | – | –
O=C(C(Cl)Cl)N(CCCc1ccc(N2CCNCC2)cc1)c1ccnc(-c2cc(-c3c(Cl)cccc3Cl)no2)c1 [Cpd. 1043, 2,2-Dichloro-N-(2-(3-(2,6-dichlorophenyl)isoxazol-5-yl)pyridin-4-yl)-N-(3-(4-(piperazin-1-yl)phenyl)propyl)acetamide] | 4.70 to 6.00 | 4.70 to 6.00 | –
O=C(c1cccc(-c2cc(-c3c(Cl)cccc3Cl)no2)c1)N(Cc1oc(=O)oc1COC1CC(O)C(O)C(CO)O1)C(=O)C(Cl)Cl (stereo not shown) [Cpd. 1044] | > 6.00 | > 6.00 | –
CC(C)(C)c1oc(=O)oc1CN(C(=O)C(Cl)Cl)c1ccnc(-c2cc(-c3c(Cl)cccc3Cl)no2)c1 [Cpd. 1107, 2,2-dichloro-N-[2′-[3′-(2′,6′-dichlorophenyl)-5′-isoxazoyl](4-pyridyl)]-N-[(5-t-butyl-1,3-dioxolene-2-one4-yl)methylene] acetamide] | – | – | Prodrug and resultant active compound levels in bile fluid [3]: High levels; Cmax ([4]; Sprague-Dawley, rat, whole blood, typical dose of 5 mg/kg, male rats, read-out: Rat PK Cmax, Prodrug): 510 ng/mL; Rat PK Hepatic extraction ratio of Prodrug ([4]; portal and jugular vein sampling): 0.97; pIC50 ([2]; Tables 3-12, 50% reduction in luciferase emission, 5-2 Luc replicon cells, read-out: Replicon (IC50)): ≥ 5.00
